In patent publication US8030300B2, “Ligands for nicotinic acetylcholine receptors, and methods of making and using them” (priority 2003, dated 2011):
Read-outs that look alike come from different tables or passages of the source.

How the values were obtained:
[1] = target: T1, receptors in rat forebrain (mainly α4β2) (Rattus norvegicus, UniProt P09483+P12390); assay: biochemical; assay type: binding; conditions: Table 3, mean of 3 independent measurements
T1 construct: from tissue; host or cells: rat forebrain homogenate

[2] = test system: receptors in rat forebrain (mainly α4β2); assay: biochemical; assay type: binding; conditions: Table 3; ratio of the corresponding Ki values
α4β4 nAChR subtype = target: T2, α4β4 nAChR subtype (Rattus norvegicus, UniProt P09483+P12392); assay: biochemical; assay type: binding; conditions: mean of 3 independent measurements
T2 construct: expressed in transfected cells
Excerpt: (§1) In order to assess the steric and hydropathic effects of the C-5 substituents of the pyridine on the binding affinity and subtype-selectivity at neuronal nicotinic acetylcholine receptors. […] The binding affinity ratios for a ligand, calculated from its affinities at an α subunit paired with either the β2 osubunit or the β4 subunit, represents a measure of the selectivity of that ligand with regard to the β subunits.

α4β2 nAChR subtype = target: T3, α4β2 nAChR subtype (Rattus norvegicus, UniProt P09483+P12390); assay: biochemical; assay type: binding; conditions: for Ki: mean of 3 independent measurements
T3 construct: expressed in transfected cells
Excerpt: as §1

α2β2 nAChR subtype = target: T4, α2β2 nAChR subtype (Rattus norvegicus, UniProt P12389+P12390); assay: biochemical; assay type: binding; conditions: mean of 3 independent measurements
T4 construct: expressed in transfected cells
Excerpt: as §1

α3β4 nAChR subtype = target: T5, α3β4 nAChR subtype (Rattus norvegicus, UniProt P04757+P12392); assay: biochemical; assay type: binding; conditions: mean of 3 independent measurements
T5 construct: expressed in transfected cells
Excerpt: as §1

α2β4 nAChR subtype = target: T6, α2β4 nAChR subtype (Rattus norvegicus, UniProt P12389+P12392); assay: biochemical; assay type: binding; conditions: mean of 3 independent measurements
T6 construct: expressed in transfected cells
Excerpt: as §1

α3β2 nAChR subtype = target: T7, α3β2 nAChR subtype (Rattus norvegicus, UniProt P04757+P12390); assay: biochemical; assay type: binding; conditions: mean of 3 independent measurements
T7 construct: expressed in transfected cells
Excerpt: as §1

[3] = background b17; approximate; cited from earlier work

T5 sequence (P04757 26-499): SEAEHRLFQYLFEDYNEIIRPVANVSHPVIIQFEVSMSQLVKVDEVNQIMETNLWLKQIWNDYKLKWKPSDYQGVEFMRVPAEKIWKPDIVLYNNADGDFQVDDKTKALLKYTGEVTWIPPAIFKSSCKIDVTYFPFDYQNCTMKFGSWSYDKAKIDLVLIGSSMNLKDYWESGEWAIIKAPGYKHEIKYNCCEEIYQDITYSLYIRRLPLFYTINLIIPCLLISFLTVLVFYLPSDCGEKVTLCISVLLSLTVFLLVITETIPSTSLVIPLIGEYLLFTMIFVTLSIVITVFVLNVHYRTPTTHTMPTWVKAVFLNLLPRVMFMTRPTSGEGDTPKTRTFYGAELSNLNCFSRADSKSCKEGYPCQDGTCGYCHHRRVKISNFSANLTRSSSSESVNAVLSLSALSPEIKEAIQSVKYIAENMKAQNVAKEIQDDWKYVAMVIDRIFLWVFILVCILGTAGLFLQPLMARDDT
T5 sequence (P12392 21-495): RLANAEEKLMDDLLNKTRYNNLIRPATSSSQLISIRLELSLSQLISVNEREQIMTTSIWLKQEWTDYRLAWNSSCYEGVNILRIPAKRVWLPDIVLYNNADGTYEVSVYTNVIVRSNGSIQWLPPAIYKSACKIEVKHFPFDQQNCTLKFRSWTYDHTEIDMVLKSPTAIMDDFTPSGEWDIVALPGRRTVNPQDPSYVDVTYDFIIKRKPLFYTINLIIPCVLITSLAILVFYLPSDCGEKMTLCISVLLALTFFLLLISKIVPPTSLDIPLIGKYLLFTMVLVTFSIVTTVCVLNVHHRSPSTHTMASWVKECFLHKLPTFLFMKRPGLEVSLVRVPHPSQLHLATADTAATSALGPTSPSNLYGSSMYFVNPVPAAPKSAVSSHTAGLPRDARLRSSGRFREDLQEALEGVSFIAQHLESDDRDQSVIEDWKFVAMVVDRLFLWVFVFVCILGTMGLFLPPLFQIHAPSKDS
T1 sequence (P09483 31-630): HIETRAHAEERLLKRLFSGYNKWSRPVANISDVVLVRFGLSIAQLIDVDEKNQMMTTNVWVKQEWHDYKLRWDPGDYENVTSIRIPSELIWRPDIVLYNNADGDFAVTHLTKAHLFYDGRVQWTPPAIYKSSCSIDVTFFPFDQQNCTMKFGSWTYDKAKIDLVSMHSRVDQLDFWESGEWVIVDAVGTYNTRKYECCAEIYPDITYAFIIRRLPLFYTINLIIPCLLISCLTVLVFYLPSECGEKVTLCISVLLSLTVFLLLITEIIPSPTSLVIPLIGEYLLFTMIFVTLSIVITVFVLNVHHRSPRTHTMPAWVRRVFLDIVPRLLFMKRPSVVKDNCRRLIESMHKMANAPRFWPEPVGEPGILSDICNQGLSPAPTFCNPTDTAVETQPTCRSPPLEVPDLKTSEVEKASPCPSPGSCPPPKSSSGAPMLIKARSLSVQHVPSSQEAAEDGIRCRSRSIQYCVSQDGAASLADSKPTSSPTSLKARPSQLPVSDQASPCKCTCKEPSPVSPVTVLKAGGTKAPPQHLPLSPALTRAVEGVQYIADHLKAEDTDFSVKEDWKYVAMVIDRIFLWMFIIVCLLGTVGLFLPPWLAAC
T1 sequence (P12390 25-500): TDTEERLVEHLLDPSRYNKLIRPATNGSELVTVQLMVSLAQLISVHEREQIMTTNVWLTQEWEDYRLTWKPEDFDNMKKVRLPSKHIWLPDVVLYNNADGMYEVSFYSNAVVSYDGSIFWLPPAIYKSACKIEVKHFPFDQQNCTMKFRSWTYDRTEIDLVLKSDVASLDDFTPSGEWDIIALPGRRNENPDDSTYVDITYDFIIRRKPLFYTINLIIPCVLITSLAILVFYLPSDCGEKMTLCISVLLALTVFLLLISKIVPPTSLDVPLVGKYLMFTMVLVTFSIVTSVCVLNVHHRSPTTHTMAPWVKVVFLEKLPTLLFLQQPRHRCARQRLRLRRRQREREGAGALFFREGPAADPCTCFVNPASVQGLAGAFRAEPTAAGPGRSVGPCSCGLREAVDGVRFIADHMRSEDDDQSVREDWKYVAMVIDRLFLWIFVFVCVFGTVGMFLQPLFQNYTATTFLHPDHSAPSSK
T6 sequence (P12389 28-511): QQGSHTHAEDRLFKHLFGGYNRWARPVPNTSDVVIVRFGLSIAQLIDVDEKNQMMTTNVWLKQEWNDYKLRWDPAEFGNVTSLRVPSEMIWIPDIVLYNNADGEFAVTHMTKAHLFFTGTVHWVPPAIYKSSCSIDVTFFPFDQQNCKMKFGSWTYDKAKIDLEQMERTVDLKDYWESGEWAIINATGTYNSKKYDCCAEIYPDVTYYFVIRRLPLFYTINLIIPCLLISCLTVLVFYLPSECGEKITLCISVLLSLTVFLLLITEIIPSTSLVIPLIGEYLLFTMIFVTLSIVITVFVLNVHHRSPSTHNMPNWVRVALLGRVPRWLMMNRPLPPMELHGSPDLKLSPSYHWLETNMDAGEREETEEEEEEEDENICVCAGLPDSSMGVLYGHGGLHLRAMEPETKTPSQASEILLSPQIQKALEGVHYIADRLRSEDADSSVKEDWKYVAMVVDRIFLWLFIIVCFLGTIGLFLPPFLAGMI
T6 sequence (P12392 21-495): as the sequence (P12392 21-495) above
T2 sequence (P12392 21-495): as above
T2 sequence (P09483 31-630): as the sequence (P09483 31-630) above
T4 sequence (P12390 25-500): as the sequence (P12390 25-500) above
T4 sequence (P12389 28-511): as the sequence (P12389 28-511) above
T7 sequence (P12390 25-500): as the sequence (P12390 25-500) above
T7 sequence (P04757 26-499): as the sequence (P04757 26-499) above
T3 sequence (P12390 25-500): as the sequence (P12390 25-500) above
T3 sequence (P09483 31-630): as the sequence (P09483 31-630) above

SMILES	Ki ([1]; read-out: Ki Forebrain)	Affinity ratio (α3β4/Forbrain) [2]	Ki (α4β4 nAChR subtype; Table 3, read-out: Ki α4β4)	Ki (α4β2 nAChR subtype; Table 3, read-out: Ki α4β2)	more selective for α4β2 over α3β4 than the corresponding parent compounds 7, 8, and 2 (α4β2 nAChR subtype; text b210)	Ki (α2β2 nAChR subtype; Table 3, read-out: Ki α2β2)	Ki (α3β4 nAChR subtype; Table 3, read-out: Ki α3β4)	Ki (α2β4 nAChR subtype; Table 3, read-out: Ki α2β4)	Ki (α3β2 nAChR subtype; Table 3, read-out: Ki α3β2)	Ki ([1]; Ki Forebrain)	Ki (α4β4 nAChR subtype; Ki α4β4, Table 3)	Ki (α4β2 nAChR subtype; Ki α4β2, Table 3)	folds lower binding affinities than epibatidine at the nAChRs (α4β2 nAChR subtype; text b208)	subtype selectivity among the neuronal nAChRs (α4β2 nAChR subtype; text b208)	Ki (α2β2 nAChR subtype; Ki α2β2, Table 3)	Ki (α3β4 nAChR subtype; Ki α3β4, Table 3)	Ki (α2β4 nAChR subtype; Ki α2β4, Table 3)	Ki (α3β2 nAChR subtype; Ki α3β2, Table 3)	affinities for α4β2 nAChR subtype (in words) (α4β2 nAChR subtype)	analgesic potency, times that of morphine [3]
OCCCCC#Cc1cncc(OC[C@@H]2CCCN2)c1 [Ligand 27]	1.15 nM	14,000	778 nM	0.665 nM	2 orders of magnitude	1.51 nM	16100 nM	835 nM	2.69 nM											
OCCCCC#Cc1ccc(C2CC3CCC2N3)cn1 (centres unmarked) [Ligand 34]		2								52 nM	61.8 nM	67.7 nM	200-1000 folds	less than 6 fold	16.9 nM	95.4 nM	67.4 nM	19.8 nM		
FCCCCC#Cc1cncc(OC[C@@H]2CCCN2)c1 [Ligand 42]	3.45 nM	2,197	721 nM	0.907 nM		3.5 nM	7580 nM	680 nM	5.27 nM										subnanomolar	
Clc1ccc(C2CC3CCC2N3)cn1 (racemic) [Epibatidine, 2-exo-(2-Chloro-5-pyridyl)-7-azabicyclo[2.2.1]heptane]																				~500 times
